Laboratory results: publication PMC12042115 (mLife, 2025)
Like-named read-outs stand apart in the source and are kept apart here.

Tested on: wild‐type BCG cells
Type: cell-based, M. bovis BCG
Details: for Mean_Ratio GDI5755_3d: DMSO_3d: Table S6; for Mean Ratio: GDI5755_2d vs DMSO_2d; for Mean Ratio / Mean Ratio (GDI5755_2d vs DMSO_2d): up-regulated; for Mean_Ratio (GDI5755_3d vs DMSO_3d): down-regulated, 3 d; for Mean Ratio (GDI5755_2d vs DMSO_2d): 2d

O=C(Oc1ccc(Cl)cc1)c1ccc(N2CCOCC2)c([N+](=O)[O-])c1 [GDI‐5755]
Mean_Ratio GDI5755_3d: DMSO_3d (BCG_1101c Serine protease): 1.4 | Mean_Ratio GDI5755_3d: DMSO_3d (BCG_1189c HNH nuclease domain-containing protein): 1.3 | Mean_Ratio GDI5755_3d: DMSO_3d (BCG_1283 Probable serine protease htrA): 1.3 | Mean_Ratio GDI5755_3d: DMSO_3d (BCG_1324 Uncharacterized protein): 1.3 | Mean_Ratio GDI5755_3d: DMSO_3d (BCG_1333 Lipoprotein lprB): 1.3 | Mean_Ratio GDI5755_3d: DMSO_3d (BCG_1334 Lipoprotein lprC): 1.3 | Mean_Ratio GDI5755_3d: DMSO_3d (BCG_1438c Transferase): 1.3 | Mean_Ratio GDI5755_3d: DMSO_3d (BCG_1471c Probable triacylglyceride transporter): 1.3 | Mean_Ratio GDI5755_3d: DMSO_3d (BCG_1492 Conserved membrane protein): 1.3 | Mean_Ratio GDI5755_3d: DMSO_3d (BCG_1523 Fe-S cluster assembly protein SufD): 1.3 | Mean_Ratio GDI5755_3d: DMSO_3d (BCG_1532 Thioredoxin): 1.3 | Mean_Ratio GDI5755_3d: DMSO_3d (BCG_1543 UPF0353 protein): 1.3 | Mean_Ratio GDI5755_3d: DMSO_3d (BCG_1787 DUF4129 domain-containing protein): 1.4 | Mean_Ratio GDI5755_3d: DMSO_3d (BCG_1890c NADH dehydrogenase ndh): 1.5 | Mean_Ratio GDI5755_3d: DMSO_3d (BCG_1937 Thiamine-binding protein-containing protein): 1.3 | Mean_Ratio GDI5755_3d: DMSO_3d (BCG_1984 HNH nuclease domain-containing protein): 1.3 | Mean_Ratio GDI5755_3d: DMSO_3d (BCG_2183c Transcriptional regulator MraZ): 1.3 | Mean_Ratio GDI5755_3d: DMSO_3d (BCG_2241c Serine protease Hip1): 1.3 | Mean_Ratio GDI5755_3d: DMSO_3d (BCG_2351c Probable lipoprotein lppP): 1.3 | Mean_Ratio GDI5755_3d: DMSO_3d (BCG_2486c DSBA-like thioredoxin domain-containing protein): 1.7 | Mean_Ratio GDI5755_3d: DMSO_3d (BCG_2516c pyruvate dehydrogenase E1 component pdhB): 1.3 | Mean_Ratio GDI5755_3d: DMSO_3d (BCG_2656 Uncharacterized protein): 1.4 | Mean_Ratio GDI5755_3d: DMSO_3d (BCG_2721c DUF3039 domain-containing protein): 1.4 | Mean_Ratio GDI5755_3d: DMSO_3d (BCG_2723 RNA polymerase sigma factor, sigB): 1.3 | Mean_Ratio GDI5755_3d: DMSO_3d (BCG_2934c Possible D-amino acid aminohydrolase): 1.4 | Mean_Ratio GDI5755_3d: DMSO_3d (BCG_3028 conserved lipoprotein lppZ): 1.3 | Mean_Ratio GDI5755_3d: DMSO_3d (BCG_3153c Diacylglycerol O-acyltransferase): 1.4 | Mean_Ratio GDI5755_3d: DMSO_3d (BCG_3164 Probable NADPH quinone oxidoreductase fadB4): 1.2 | Mean_Ratio GDI5755_3d: DMSO_3d (BCG_3165c Uncharacterized protein): 1.3 | Mean_Ratio GDI5755_3d: DMSO_3d (BCG_3185c Dioxygenase): 2.2 | Mean_Ratio GDI5755_3d: DMSO_3d (BCG_3269c Protein translocase subunit SecA 1): 1.2 | Mean_Ratio GDI5755_3d: DMSO_3d (BCG_3476 Probable dioxygenase): 1.6 | Mean_Ratio GDI5755_3d: DMSO_3d (BCG_3583 Acetoacetate decarboxylase): 1.3 | Mean_Ratio GDI5755_3d: DMSO_3d (BCG_3590 Rieske-type oxygenase): 1.4 | Mean_Ratio GDI5755_3d: DMSO_3d (BCG_3674c ATP-dependent zinc metalloprotease FtsH): 1.3 | Mean_Ratio GDI5755_3d: DMSO_3d (BCG_3709 Rv3651-like N-terminal domain-containing protein): 1.3 | Mean_Ratio GDI5755_3d: DMSO_3d (BCG_3824c Two-component transcriptional regulator TcrX): 1.4 | Mean_Ratio GDI5755_3d: DMSO_3d (BCG_3881 Uncharacterized protein): 1.4 | Mean_Ratio GDI5755_3d: DMSO_3d (BCG_3905c Glycerol phosphoryl diester phosphodiesterase glpQ1): 1.3 | Mean_Ratio (GDI5755_2d vs DMSO_2d), protein L-serine dehydratase (iTRAQ protein abundance ratio, 2 d treatment vs DMSO, sheet down-regulated, Protein_ID A0A0H3M0L9, Pvalue 5.14E-04): 0.80 | Mean_Ratio (GDI5755_2d vs DMSO_2d), protein Endonuclease NucS (iTRAQ protein abundance ratio, 2 d treatment vs DMSO, sheet down-regulated, Protein_ID A0A0H3M5R4, Pvalue 4.43E-04): 0.80 | Mean_Ratio (GDI5755_2d vs DMSO_2d), protein Trehalose 2-sulfotransferase (iTRAQ protein abundance ratio, 2 d treatment vs DMSO, sheet down-regulated, Protein_ID A0A0H3M7Q0, Pvalue 1.60E-03): 0.80 | Mean_Ratio (GDI5755_2d vs DMSO_2d), protein DUF3263 domain-containing protein (iTRAQ protein abundance ratio, 2 d treatment vs DMSO, sheet down-regulated, Protein_ID A0A0H3M274, Pvalue 5.23E-03): 0.80 | Mean_Ratio (GDI5755_2d vs DMSO_2d), protein Translation initiation factor IF-3 (iTRAQ protein abundance ratio, 2 d treatment vs DMSO, sheet down-regulated, Protein_ID A0A0H3MDG6, Pvalue 1.81E-05): 0.80 | Mean_Ratio (GDI5755_2d vs DMSO_2d), protein Possible conserved membrane or exported protein (iTRAQ protein abundance ratio, 2 d treatment vs DMSO, sheet down-regulated, Protein_ID A0A0H3MDQ9, Pvalue 5.91E-05): 0.80 | Mean_Ratio (GDI5755_2d vs DMSO_2d), protein Large ribosomal subunit protein uL22 (iTRAQ protein abundance ratio, 2 d treatment vs DMSO, sheet down-regulated, Protein_ID A1KGI7, Pvalue 5.54E-04): 0.80 | Mean_Ratio (GDI5755_2d vs DMSO_2d), protein ATP-dependent Clp protease ATP-binding subunit ClpX (iTRAQ protein abundance ratio, 2 d treatment vs DMSO, sheet down-regulated, Protein_ID A1KLF3, Pvalue 2.57E-03): 0.80 | Mean Ratio (protein A0A0G2Q9F2 Ribonuclease P protein component): 1.26 | Mean_Ratio (GDI5755_3d vs DMSO_3d) (protein A0A0G2Q9J9, BCG_3329c (Rv3300c), Pseudouridine synthase RsuA/RluA-like domain-containing protein): 0.7 | Mean_Ratio (GDI5755_3d vs DMSO_3d) (protein A0A0G2Q9N9, BCG_0021 (Rv3915), N-acetylmuramoyl-L-alanine amidase CwlM): 0.7 | Mean Ratio (protein A0A0H3M0K6 Probable conserved transmembrane protein): 1.32 | Mean Ratio (protein A0A0H3M0R3 Secreted antigen 85-c fbpC (85C)): 1.28 | Mean Ratio (GDI5755_2d vs DMSO_2d) (protein A0A0H3M1A8 Isoniazid inductible gene protein iniC): 1.34 | Mean_Ratio (GDI5755_3d vs DMSO_3d) (protein A0A0H3M1E3, BCG_0162 (Rv0128), Probable conserved transmembrane protein): 0.7 | Mean Ratio (GDI5755_2d vs DMSO_2d) (protein A0A0H3M1F5 DUF427 domain-containing protein): 1.39 | Mean Ratio (protein A0A0H3M1G0 Possible conserved lipoprotein lpqK): 1.28 | Mean_Ratio (GDI5755_3d vs DMSO_3d) (protein A0A0H3M1I3, BCG_0204 (Rv0167), Conserved hypothetical integral membrane protein yrbE1A): 0.7 | Mean_Ratio (GDI5755_3d vs DMSO_3d) (protein A0A0H3M1V2, BCG_0591c (Rv0547c), Possible oxidoreductase): 0.757 | Mean Ratio (protein A0A0H3M1X4 Probable dehydrogenase/reductase): 1.28 | Mean Ratio (protein A0A0H3M1Z8 Isoniazid inductible gene protein iniA): 1.28 | Mean Ratio (protein A0A0H3M2A5 Carboxymuconolactone decarboxylase-like domain-containing protein): 1.25 | Mean Ratio (protein A0A0H3M2D4 Possible conserved transmembrane protein): 1.26 | Mean_Ratio (GDI5755_3d vs DMSO_3d) (protein A0A0H3M2J1, BCG_0913c (Rv0861c), DNA helicase): 0.746 | Mean_Ratio (GDI5755_3d vs DMSO_3d) (protein A0A0H3M2K9, BCG_0627 (Rv0582), Ribonuclease VapC): 0.74 | Mean_Ratio (GDI5755_3d vs DMSO_3d) (protein A0A0H3M2L9, BCG_0933 (Rv0881), Possible rRNA methyltransferase): 0.7 | Mean_Ratio (GDI5755_3d vs DMSO_3d) (protein A0A0H3M2M6, BCG_0648c (Rv0602c), Two component DNA binding/Transcriptional regulatory protein tcrA): 0.7
